Literature values as cited in patent US10555523B2, “Self indicating antimicrobial chemistry” (ECOLAB USA INC, priority 2015, dated 2020).

Test system: microorganisms

CC(=O)OO [Peracetic acid]
concentration needed for biocidal activity: greater than 80 part per million
